The source of these data is PMC12375786, “Revolutionizing cancer treatment with Halomonas Aquamarina L-Glutaminase: insights from in vitro and computational studies” (Scientific Reports, 2025).

This assay has as its system T1, L-GLS (L-glutaminase) of Halomonas aquamarina HBIM1.
T1 construct: gene glsA
As to conditions: unit printed as mM^-1 (reciprocal, probably mM meant); pH and temperature of the kinetic run not given.

For the compound `NC(=O)CC[C@H](N)C(=O)O` [L-glutamine], the Km was 0.198 mM⁻¹.
